# Measured values published in paper PMC4640066 (Nature Communications, 2015).
# Target: T1, γ-TuSC (Saccharomyces cerevisiae, UniProt P53378)
# T1 construct: made in house; host or cells: HighFive insect cells
# T1 sequence (P53378 1-473): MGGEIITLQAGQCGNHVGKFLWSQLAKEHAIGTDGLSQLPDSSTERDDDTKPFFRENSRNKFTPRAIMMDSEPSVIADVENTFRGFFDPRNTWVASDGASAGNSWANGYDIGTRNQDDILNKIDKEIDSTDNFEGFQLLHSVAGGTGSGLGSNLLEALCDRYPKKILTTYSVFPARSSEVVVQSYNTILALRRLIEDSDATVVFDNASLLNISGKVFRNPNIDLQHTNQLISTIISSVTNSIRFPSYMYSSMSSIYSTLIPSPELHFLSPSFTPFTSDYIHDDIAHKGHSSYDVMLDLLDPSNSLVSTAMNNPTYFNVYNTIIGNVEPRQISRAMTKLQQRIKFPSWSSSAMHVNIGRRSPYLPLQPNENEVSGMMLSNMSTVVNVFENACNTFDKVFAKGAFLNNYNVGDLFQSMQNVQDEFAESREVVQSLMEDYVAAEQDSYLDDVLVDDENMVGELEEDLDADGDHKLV
# T1 sequence (P38863 1-823 partner): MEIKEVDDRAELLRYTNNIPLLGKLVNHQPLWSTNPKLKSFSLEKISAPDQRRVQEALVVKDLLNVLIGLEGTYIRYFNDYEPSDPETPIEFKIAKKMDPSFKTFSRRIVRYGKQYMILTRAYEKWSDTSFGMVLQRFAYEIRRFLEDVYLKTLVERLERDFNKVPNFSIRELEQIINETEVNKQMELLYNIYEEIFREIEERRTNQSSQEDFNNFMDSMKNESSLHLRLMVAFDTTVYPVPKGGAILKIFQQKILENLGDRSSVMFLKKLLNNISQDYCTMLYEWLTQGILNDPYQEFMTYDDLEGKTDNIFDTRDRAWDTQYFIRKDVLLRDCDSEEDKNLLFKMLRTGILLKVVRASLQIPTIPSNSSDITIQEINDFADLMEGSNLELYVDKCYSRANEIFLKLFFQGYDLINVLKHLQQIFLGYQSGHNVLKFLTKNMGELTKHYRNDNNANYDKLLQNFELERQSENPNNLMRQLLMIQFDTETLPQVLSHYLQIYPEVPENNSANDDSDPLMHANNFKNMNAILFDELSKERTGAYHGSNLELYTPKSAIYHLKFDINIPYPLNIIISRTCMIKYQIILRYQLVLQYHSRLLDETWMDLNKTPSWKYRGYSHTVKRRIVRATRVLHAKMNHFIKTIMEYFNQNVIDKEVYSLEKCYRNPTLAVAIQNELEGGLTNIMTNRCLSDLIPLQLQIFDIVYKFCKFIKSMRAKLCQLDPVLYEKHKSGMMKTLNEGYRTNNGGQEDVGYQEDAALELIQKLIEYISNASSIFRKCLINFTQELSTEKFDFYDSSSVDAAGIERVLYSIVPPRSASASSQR
# T1 sequence (P53540 1-846 partner): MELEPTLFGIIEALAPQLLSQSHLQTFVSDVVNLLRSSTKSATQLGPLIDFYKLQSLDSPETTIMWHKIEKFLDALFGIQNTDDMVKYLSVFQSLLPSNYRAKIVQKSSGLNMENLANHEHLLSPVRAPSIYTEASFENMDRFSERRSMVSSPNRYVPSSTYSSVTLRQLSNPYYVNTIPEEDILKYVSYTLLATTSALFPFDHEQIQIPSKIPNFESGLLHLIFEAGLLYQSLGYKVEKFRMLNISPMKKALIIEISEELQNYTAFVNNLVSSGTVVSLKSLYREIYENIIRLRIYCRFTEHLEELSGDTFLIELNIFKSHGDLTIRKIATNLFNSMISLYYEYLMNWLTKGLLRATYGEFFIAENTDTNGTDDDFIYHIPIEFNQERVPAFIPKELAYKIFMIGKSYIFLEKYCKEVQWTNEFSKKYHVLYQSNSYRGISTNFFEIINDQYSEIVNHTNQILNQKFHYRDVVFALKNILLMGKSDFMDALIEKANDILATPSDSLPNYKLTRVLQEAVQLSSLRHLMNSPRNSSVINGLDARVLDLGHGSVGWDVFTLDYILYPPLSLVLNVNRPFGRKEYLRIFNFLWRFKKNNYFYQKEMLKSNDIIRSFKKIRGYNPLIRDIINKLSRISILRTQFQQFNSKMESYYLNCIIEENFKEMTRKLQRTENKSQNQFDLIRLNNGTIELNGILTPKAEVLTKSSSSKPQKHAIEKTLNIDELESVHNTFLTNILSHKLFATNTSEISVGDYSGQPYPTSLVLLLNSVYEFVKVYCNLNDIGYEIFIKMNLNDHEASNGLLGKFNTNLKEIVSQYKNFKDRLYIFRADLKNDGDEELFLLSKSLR
# Assay: γ-TuSC capping to paclitaxel-stabilized MTs
# Format: biochemical
# Settings: 50 μM
# Protocol: γ-TuSC was diluted in RB buffer containing 10 μM paclitaxel to reach a final protein concentration of 0.5 μM and incubated with 50 μM of gatastatin for 30 min at 25 °C. Polymerized MTs were prepared by incubation of ∼5 mg ml^−1 α/β-tubulin for 30 min at 37 °C with 1 mM GTP; then paclitaxel was added (final 10 μM). GTP was removed from paclitaxel-stabilized MTs with ultracentrifugation at 240,000g for 10 min at 25 °C. Paclitaxel-stabilized MTs were added to γ-TuSC (final ∼1.2 mg ml^−1). Next, γ-TuSC was incubated with paclitaxel-stabilized MTs for 30 min; MTs and MT-bound γ-TuSC were collected with ultracentrifugation at 240,000g for 10 min at 25 °C and finally placed on poly-L-lysine-coated coverslips. After incubation for 15 min, coverslips were immediately fixed with cold MeOH (−20 °C). Coverslips were blocked with PBS containing 0.5% bovine serum albumin and were incubated with anti-α-tubulin (1:200 dilution, MBL, Cat# PM054) and anti-penta His (1:200 dilution, Qiagen, Cat# 34660) antibodies. After staining with Alexa^488-conjugated anti-rabbit IgG (1:2000 dilution, Invitrogen) and Alexa^568-conjugated anti-mouse IgG (1:2000 dilution, Invitrogen), the coverslips were washed four times with PBS and mounted with PBS. γ-TuSC bound to MTs was observed under a LAS AF 6000 fluorescence microscope (Leica Microsystems, Wetzlar, Germany).
smiles,measurement,value
"COc1cc2c(=O)c(-c3cc(OC)c4c(c3OC)OCO4)coc2cc1OCc1ccccc1 [Gatastatin, O^7-demethylbenzyl AG1]",Effect on γ-TuSC binding to MT ends,impaired γ-TuSC binding to MT ends
